This is an account of results in patent US20080207705A1, “Heteroaryl-Imidazole Derivatives as Cannabinoid CB1 Receptor Antagonists” (Green Cross Corporation, priority 2007, published 2008).

By IC50 is commonly meant the concentration at which inhibition is half-maximal.

In the first experiment the target is T1, rat CB-1 receptor (Rattus norvegicus, UniProt P20272).
T1 construct: The tissue obtained from the brain of SD rats was homogenized; from tissue; host or cells: brain of SD rats (membrane pellet of homogenate)
T1 sequence (P20272 whole entry): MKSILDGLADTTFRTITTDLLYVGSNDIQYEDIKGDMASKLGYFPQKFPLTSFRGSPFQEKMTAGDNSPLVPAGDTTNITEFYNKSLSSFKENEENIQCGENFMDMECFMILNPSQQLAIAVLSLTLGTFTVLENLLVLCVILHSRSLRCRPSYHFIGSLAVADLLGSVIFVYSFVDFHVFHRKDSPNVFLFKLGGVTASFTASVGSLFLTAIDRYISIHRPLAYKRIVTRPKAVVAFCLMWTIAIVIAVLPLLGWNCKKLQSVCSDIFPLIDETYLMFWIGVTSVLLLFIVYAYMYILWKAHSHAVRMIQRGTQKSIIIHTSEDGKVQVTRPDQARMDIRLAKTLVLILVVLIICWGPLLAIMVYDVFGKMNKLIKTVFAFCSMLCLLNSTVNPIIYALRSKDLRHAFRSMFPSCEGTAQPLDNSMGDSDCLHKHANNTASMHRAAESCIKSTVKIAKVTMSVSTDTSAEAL
The experiment in a line: rat CB-1 receptor binding protocol with [3H]CP-55940.
Settings: not given
Compound `CCc1c(-c2nnc(C3(C(F)(F)F)CCC3)s2)nc(-c2ccccc2Cl)n1-c1ccc(Br)cc1` [Example 147, 2-(1-(4-Bromophenyl)-2-(2-chlorophenyl)-5-ethyl-1H-imidazol-4-yl)-5-(1-(trifluoromethyl)cyclobutyl)-1,3,4-thiadiazole] returned an IC50 of 5.33 nM.

Turning to `Cc1c(-c2nnc(C(C)(C)C)o2)nc(-c2ccccc2Cl)n1-c1ccc(Br)cc1` [Example 51, 2-(1-(4-Bromophenyl)-2-(2-chlorophenyl)-5-methyl-1H-imidazol-4-yl)-5-tert-butyl-1,3,4-oxadiazole], the IC50 stood at 31.7 nM.

Regarding `CCCC(C)c1nnc(-c2nc(-c3ccc(Cl)cc3Cl)n(-c3ccc(Cl)cc3)c2C)o1` (stereo not shown) [Example 7, 2-(1-(4-Chlorophenyl)-2-(2,4-dichlorophenyl)-5-methyl-1H-imidazol-4-yl)-5-(pentan-2-yl)-1,3,4-oxadiazole], the IC50 amounted to 14.2 nM.

`Cc1c(-c2nnc(C3CCC3)o2)nc(-c2ccc(Cl)cc2Cl)n1-c1ccc(Br)cc1` [Example 22, 2-(1-(4-Bromophenyl)-2-(2,4-dichlorophenyl)-5-methyl-1H-imidazol-4-yl)-5-cyclobutyl-1,3,4-oxadiazole] displayed an IC50 of 29.3 nM.

The compound `Cc1c(-c2nnc(C3CCCC3)o2)nc(-c2ccc(Cl)cc2Cl)n1-c1ccc(Cl)cc1` [Example 3, 2-(1-(4-Chlorophenyl)-2-(2,4-dichlorophenyl)-5-methyl-1H-imidazol-4-yl)-5-cyclopentyl-1,3,4-oxadiazole] gave an IC50 of 35.3 nM.

The experiment is the same for the next values; noted with them: [3H]CP-55940, brain tissue of SD rats, 30 °C for 60 min; read-out: IC50.
As for `CCCC(C)c1nnc(-c2nc(-c3ccc(Cl)cc3Cl)n(-c3ccc(Cl)cc3)c2CC)s1` (stereo not shown) [Example 106, 2-(1-(4-Chlorophenyl)-2-(2,4-dichlorophenyl)-5-ethyl-1H-imidazol-4-yl)-5-(pentan-2-yl)-1,3,4-thiadiazole], the IC50 amounted to 12.9 nM.

With `CCCc1c(-c2nnc(C3(c4ccc(Cl)cc4)CC3)s2)nc(-c2ccc(Cl)cc2Cl)n1-c1ccc(Br)cc1` [Example 123, 2-(1-(4-Bromophenyl)-2-(2,4-dichlorophenyl)-5-propyl-1H-imidazol-4-yl)-5-(1-(4-chlorophenyl)cyclopropyl)-1,3,4-thiadiazole], the IC50 was determined as 4.48 nM.

As for `CCCc1c(-c2nnc(C3(c4ccc(Cl)cc4)CCC3)o2)nc(-c2ccc(Cl)cc2Cl)n1-c1ccc(Br)cc1` [Example 34, 2-(1-(4-Bromophenyl)-2-(2,4-dichlorophenyl)-5-propyl-1H-imidazol-4-yl)-5-(1-(4-chlorophenyl)cyclobutyl)-1,3,4-oxadiazole], the half-maximal inhibitory concentration (IC50) was 9.05 nM.

Regarding `CCc1cnc(-c2nc(-c3ccc(Cl)cc3Cl)n(-c3ccc(Cl)cc3)c2C)s1` [Example 194, 2-(1-(4-Chlorophenyl)-2-(2,4-dichlorophenyl)-5-methyl-1H-imidazol-4-yl)-5-ethylthiazole], the IC50 amounted to 70.2 nM.

Take `CCc1c(-c2nnc(C3CCCCC3)o2)nc(-c2ccc(Cl)cc2Cl)n1-c1ccc(Cl)cc1` [Example 12, 2-(1-(4-Chlorophenyl)-2-(2,4-dichlorophenyl)-5-ethyl-1H-imidazol-4-yl)-5-cyclohexyl-1,3,4-oxadiazole]: the IC50 came to 48.4 nM.

`CCc1c(-c2nnc(C3(c4ccc(Cl)cc4)CC3)o2)nc(-c2ccccc2Cl)n1-c1ccc(Br)cc1` [Example 58, 2-(1-(4-Bromophenyl)-2-(2-chlorophenyl)-5-ethyl-1H-imidazol-4-yl)-5-(1-(4-chlorophenyl)cyclopropyl)-1,3,4-oxadiazole]: the IC50 was 10.3 nM.

Turning to `CCc1c(-c2nnc(C3CCC3)s2)nc(-c2ccc(Cl)cc2Cl)n1-c1ccc(Br)cc1` [Example 112, 2-(1-(4-Bromophenyl)-2-(2,4-dichlorophenyl)-5-ethyl-1H-imidazol-4-yl)-5-cyclobutyl-1,3,4-thiadiazole], the IC50 is 14 nM.

As to `Cc1c(-c2nnc(C3CCC3)s2)nc(-c2ccc(Cl)cc2Cl)n1-c1ccc(Br)cc1` [Example 111, 2-(1-(4-Bromophenyl)-2-(2,4-dichlorophenyl)-5-methyl-1H-imidazol-4-yl)-5-cyclobutyl-1,3,4-thiadiazole], the IC50 was found to be 27.8 nM.

For `CCc1c(-c2nnc(C3(C(F)(F)F)CC3)s2)nc(-c2ccc(Cl)cc2Cl)n1-c1ccc(Br)cc1` [Example 139, 2-(1-(4-Bromophenyl)-2-(2,4-dichlorophenyl)-5-ethyl-1H-imidazol-4-yl)-5-(1-(trifluoromethyl)cyclopropyl)-1,3,4-thiadiazole], the IC50 came to 15.9 nM.

As for `CC(C)c1c(-c2nnc(C3(c4ccccc4)CC3)s2)nc(-c2ccc(Cl)cc2Cl)n1-c1ccc(Br)cc1` [Example 116, 2-(1-(4-Bromophenyl)-2-(2,4-dichlorophenyl)-5-isopropyl-1H-imidazol-4-yl)-5-(1-phenylcyclopropyl)-1,3,4-thiadiazole], the IC50 was determined as 5.66 nM.

With `CCc1c(-c2nnc(C(C)(C)C)o2)nc(-c2ccccc2Cl)n1-c1ccc(Br)cc1` [Example 55, 2-(1-(4-Bromophenyl)-2-(2-chlorophenyl)-5-ethyl-1H-imidazol-4-yl)-5-tert-butyl-1,3,4-oxadiazole], the IC50 was found to be 14.7 nM.

On to `CCCc1c(-c2nnc(C3CCCCC3)s2)nc(-c2ccc(Cl)cc2Cl)n1-c1ccc(Cl)cc1` [Example 129, 2-(1-(4-Chlorophenyl)-2-(2,4-dichlorophenyl)-5-propyl-1H-imidazol-4-yl)-5-cyclohexyl-1,3,4-thiadiazole], for which the IC50 is 51.5 nM.

Consider `Cc1c(-c2nnc(C3(C(F)(F)F)CC3)o2)nc(-c2ccc(Cl)cc2Cl)n1-c1ccc(Br)cc1` [Example 46, 2-(1-(4-Bromophenyl)-2-(2,4-dichlorophenyl)-5-methyl-1H-imidazol-4-yl)-5-(1-(trifluoromethyl)cyclopropyl)-1,3,4-oxadiazole], for which the IC50 was found to be 15.6 nM.

Turning to `CCc1c(-c2nnc(C3(c4ccc(Cl)cc4)CCCC3)o2)nc(-c2ccc(Cl)cc2Cl)n1-c1ccc(Br)cc1` [Example 45, 2-(1-(4-Bromophenyl)-2-(2,4-dichlorophenyl)-5-ethyl-1H-imidazol-4-yl)-5-(1-(4-chlorophenyl)cyclopentyl)-1,3,4-oxadiazole], the IC50 is 11.4 nM.

As for `Cc1c(-c2ncc(C(C)(C)C)s2)nc(-c2ccc(Cl)cc2Cl)n1-c1ccc(Br)cc1` [Example 200, 2-(1-(4-Bromophenyl)-2-(2,4-dichlorophenyl)-5-methyl-1H-imidazol-4-yl)-5-tert-butylthiazole], the IC50 worked out at 16 nM.

Regarding `Cc1c(-c2nnc(C3(C(F)(F)F)CC3)s2)nc(-c2ccc(Cl)cc2Cl)n1-c1ccc(Br)cc1` [Example 136, 2-(1-(4-Bromophenyl)-2-(2,4-dichlorophenyl)-5-methyl-1H-imidazol-4-yl)-5-(1-(trifluoromethyl)cyclopropyl)-1,3,4-thiadiazole], the IC50 was 47.1 nM.

In the case of `CCCC(C)c1nnc(-c2nc(-c3ccc(Cl)cc3Cl)n(-c3ccc(Cl)cc3)c2C)s1` (stereo not shown) [Example 96, 2-(1-(4-Chlorophenyl)-2-(2,4-dichlorophenyl)-5-methyl-1H-imidazol-4-yl)-5-(pentan-2-yl)-1,3,4-thiadiazole], the IC50 was determined as 12.7 nM.

Consider `CCCc1c(-c2nnc(C3(c4ccc(Cl)cc4)CC3)o2)nc(-c2ccc(Cl)cc2Cl)n1-c1ccc(Br)cc1` [Example 33, 2-(1-(4-Bromophenyl)-2-(2,4-dichlorophenyl)-5-propyl-1H-imidazol-4-yl)-5-(1-(4-chlorophenyl)cyclopropyl)-1,3,4-oxadiazole], for which the IC50 worked out at 19.2 nM.

As to `CCCc1c(-c2nnc(C3(c4ccc(Cl)cc4)CC3)s2)nc(-c2ccc(Cl)cc2Cl)n1-c1ccc(Cl)cc1` [Example 127, 2-(1-(4-Chlorophenyl)-2-(2,4-dichlorophenyl)-5-propyl-1H-imidazol-4-yl)-5-(1-(4-chlorophenyl)cyclopropyl)-1,3,4-thiadiazole], the IC50 was found to be 3.43 nM.

`CCCCC(C)c1nnc(-c2nc(-c3ccc(Cl)cc3Cl)n(-c3ccc(Cl)cc3)c2CC)s1` (stereo not shown) [Example 105, 2-(1-(4-Chlorophenyl)-2-(2,4-dichlorophenyl)-5-ethyl-1H-imidazol-4-yl)-5-(hexan-2-yl)-1,3,4-thiadiazole]: the IC50 was 8.05 nM.

Consider `CC(C)c1c(-c2nnc(C3(c4ccccc4)CC3)o2)nc(-c2ccc(Cl)cc2Cl)n1-c1ccc(Br)cc1` [Example 26, 2-(1-(4-Bromophenyl)-2-(2,4-dichlorophenyl)-5-isopropyl-1H-imidazol-4-yl)-5-(1-phenylcyclopropyl)-1,3,4-oxadiazole], for which the IC50 came out at 10.3 nM.

In the case of `CCc1c(-c2nnc(C3(c4ccc(Cl)cc4)CC3)s2)nc(-c2ccccc2Cl)n1-c1ccc(Br)cc1` [Example 148, 2-(1-(4-Bromophenyl)-2-(2-chlorophenyl)-5-ethyl-1H-imidazol-4-yl)-5-(1-(4-chlorophenyl)cyclopropyl)-1,3,4-thiadiazole], the IC50 turned out to be 4.93 nM.

As to `CCc1c(-c2nnc(C3CCCC3)s2)nc(-c2ccc(Cl)cc2Cl)n1-c1ccc(Cl)cc1` [Example 102, 2-(1-(4-Chlorophenyl)-2-(2,4-dichlorophenyl)-5-ethyl-1H-imidazol-4-yl)-5-cyclopentyl-1,3,4-thiadiazole], the IC50 was 17.6 nM.

Turning to `Cc1c(-c2nnc(C3CCC3)s2)nc(-c2ccc(Cl)cc2Cl)n1-c1ccc(Cl)cc1` [Example 93, 2-(1-(4-Chlorophenyl)-2-(2,4-dichlorophenyl)-5-methyl-1H-imidazol-4-yl)-5-cyclobutyl-1,3,4-thiadiazole], the IC50 was 42.3 nM.

Consider `CCCc1c(-c2nnc(C3(c4ccc(Cl)cc4)CCC3)s2)nc(-c2ccc(Cl)cc2Cl)n1-c1ccc(Br)cc1` [Example 124, 2-(1-(4-Bromophenyl)-2-(2,4-dichlorophenyl)-5-propyl-1H-imidazol-4-yl)-5-(1-(4-chlorophenyl)cyclobutyl)-1,3,4-thiadiazole], for which the IC50 came out at 1.79 nM.

`CCCc1c(-c2nnc(C3CCC3)s2)nc(-c2ccc(Cl)cc2Cl)n1-c1ccc(Cl)cc1` [Example 126, 2-(1-(4-Chlorophenyl)-2-(2,4-dichlorophenyl)-5-propyl-1H-imidazol-4-yl)-5-cyclobutyl-1,3,4-thiadiazole]: the IC50 worked out at 13.5 nM.
